The results in this text go back to ChEMBL document CHEMBL1143013, “4-aryl-5-(4-piperidyl)-3-isoxazolol GABAA antagonists: synthesis, pharmacology, and structure-activity relationships” (J Med Chem, 2007).

Experiment [1] is described as follows: Displacement of [3H]muscimol from GABAA receptor in Sprague-Dawley rat brain synaptic membrane. In general terms: In a radioligand displacement assay an active substance lowers the binding of a labelled ligand.
The species named for the next experiment is Rattus norvegicus. As to the kind of experiment: Displacement of [3H]GABA from GABAB receptor in Sprague-Dawley rat brain synaptic membrane at 100 uM.
Experiment [2] has as its target T1, GABA-A receptor; alpha-1/beta-3/gamma-2 (Homo sapiens, UniProt P14867+P18507+P28472).
T1 sequence (P14867 whole entry): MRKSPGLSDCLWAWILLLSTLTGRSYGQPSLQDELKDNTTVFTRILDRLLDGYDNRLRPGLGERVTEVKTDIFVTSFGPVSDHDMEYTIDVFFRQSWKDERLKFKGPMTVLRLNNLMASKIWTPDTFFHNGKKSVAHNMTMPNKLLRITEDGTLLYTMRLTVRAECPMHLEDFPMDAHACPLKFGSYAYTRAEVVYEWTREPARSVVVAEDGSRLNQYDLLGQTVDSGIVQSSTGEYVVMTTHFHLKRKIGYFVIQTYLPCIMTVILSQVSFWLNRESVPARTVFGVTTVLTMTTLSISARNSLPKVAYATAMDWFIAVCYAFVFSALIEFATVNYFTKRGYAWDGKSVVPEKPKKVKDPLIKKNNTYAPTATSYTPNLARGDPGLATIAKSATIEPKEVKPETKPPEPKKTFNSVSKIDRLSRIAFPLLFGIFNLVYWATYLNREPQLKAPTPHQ
T1 sequence (P18507 whole entry): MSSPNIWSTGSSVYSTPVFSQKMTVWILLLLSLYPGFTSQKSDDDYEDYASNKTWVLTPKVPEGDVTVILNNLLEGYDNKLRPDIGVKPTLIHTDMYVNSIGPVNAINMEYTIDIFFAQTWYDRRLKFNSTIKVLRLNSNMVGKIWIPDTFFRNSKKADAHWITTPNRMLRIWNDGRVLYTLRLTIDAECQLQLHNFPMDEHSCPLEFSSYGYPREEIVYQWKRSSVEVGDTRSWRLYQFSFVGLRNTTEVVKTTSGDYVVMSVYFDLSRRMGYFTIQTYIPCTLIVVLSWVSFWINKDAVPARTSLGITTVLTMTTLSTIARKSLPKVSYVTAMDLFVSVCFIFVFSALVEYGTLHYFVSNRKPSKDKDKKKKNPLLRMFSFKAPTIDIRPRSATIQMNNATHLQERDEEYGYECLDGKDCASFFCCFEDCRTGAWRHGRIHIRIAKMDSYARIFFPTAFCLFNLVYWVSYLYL
T1 sequence (P28472 whole entry): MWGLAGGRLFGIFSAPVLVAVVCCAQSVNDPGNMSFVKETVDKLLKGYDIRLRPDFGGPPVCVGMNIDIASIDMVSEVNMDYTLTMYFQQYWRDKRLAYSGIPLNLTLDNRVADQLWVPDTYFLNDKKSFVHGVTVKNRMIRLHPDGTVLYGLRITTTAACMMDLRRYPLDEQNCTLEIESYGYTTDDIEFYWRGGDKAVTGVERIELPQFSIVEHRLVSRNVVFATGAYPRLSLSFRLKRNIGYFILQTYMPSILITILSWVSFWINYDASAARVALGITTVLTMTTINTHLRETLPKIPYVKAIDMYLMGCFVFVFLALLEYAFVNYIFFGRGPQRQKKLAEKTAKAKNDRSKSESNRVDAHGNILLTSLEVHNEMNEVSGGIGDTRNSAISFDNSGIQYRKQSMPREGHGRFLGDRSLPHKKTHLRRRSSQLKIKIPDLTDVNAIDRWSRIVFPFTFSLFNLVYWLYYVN
In words: Antagonist activity at human GABAA alpha-1-beta-3-gamma-2S expressed in Xenopus oocytes by two-electrode voltage-clamp electrophysiology. In kind it is functional, cell-based, Oocyte. (Two-electrode voltage clamp holds a large cell at a set potential and records current.)

Molecules are shown by their SMILES. Calls of active or inactive are those of the source. The rule behind the calls is not given here.

Consider `Br.Oc1noc(C2CCNCC2)c1-c1ccc(Oc2ccccc2)cc1`, for which, in experiment [1], the Ki was 70 nM and the “Log Ki” value is reported as -7.15. Further, the result in the experiment listed under Rattus norvegicus was inactive. The Ki in experiment [2] (read-out: Ki) is 8 nM.

For `Br.Oc1noc(C2CCNCC2)c1-c1ccc(Cl)cc1`, in experiment [1], the Ki worked out at 2420 nM and the “Log Ki” value is -5.62. In addition, the result in the experiment listed under Rattus norvegicus was inactive. Also, the inhibition constant (Ki) in experiment [2] (read-out: Ki) is 204 nM.

Regarding `Oc1noc(C2CCNCC2)c1Cc1ccc2ccccc2c1`, the Ki in experiment [1] was 49 nM. Besides, the outcome in the experiment filed under Rattus norvegicus was inactive.

Consider `Br.Oc1noc(C2CCNCC2)c1-c1csc(-c2ccccc2)c1`, for which, in experiment [1], the Ki came to 25 nM and the “Log Ki” value is -7.61. Moreover, the result in the experiment listed under Rattus norvegicus was inactive. Moreover, the inhibition constant (Ki) in experiment [2] (read-out: Ki) is 9 nM.

Regarding `Br.Oc1noc(C2CCNCC2)c1-c1cccc(Cl)c1`, in experiment [1], the Ki worked out at 58 nM and the “Log Ki” value is given as -7.24. Further, the outcome in the experiment filed under Rattus norvegicus was inactive. Further, the inhibitory constant (Ki) in experiment [2] (read-out: Ki) came to 48 nM.

`Br.Oc1noc(C2CCNCC2)c1-c1ccc(-c2ccccc2)cc1`: in experiment [1], affinity was put at a Ki of 195 nM and the “Log Ki” value was -6.71. In addition, in the experiment listed under Rattus norvegicus, the outcome was inactive. In addition, the Ki in experiment [2] (read-out: Ki) was determined as 71 nM.

Take `Oc1cc(C2CCNCC2)on1`: the outcome in the experiment listed under Rattus norvegicus was inactive.

With `Oc1noc(C2CCNCC2)c1-c1ccccc1`, the inhibition constant Ki came out at 220 nM in experiment [1] and 159 nM in experiment [2] (read-out: Ki). Moreover, the result in the experiment filed under Rattus norvegicus was inactive.

As for `Br.Oc1noc(C2CCNCC2)c1-c1cccc(-c2ccccc2)c1`, in experiment [1], the affinity, expressed as Ki, was 10 nM and the “Log Ki” value is recorded as -8. The result in the experiment filed under Rattus norvegicus was inactive. For the same compound, the inhibition constant Ki in experiment [2] (read-out: Ki) came out at 10 nM.

In the case of `Br.CC(C)(C)c1ccc(-c2c(O)noc2C2CCNCC2)cc1`, the Ki in experiment [1] came to 6980 nM; in experiment [2] (read-out: Ki), 257 nM. Moreover, the “Log Ki” value in experiment [1] is reported as -5.16. Further, the outcome in the experiment listed under Rattus norvegicus was inactive.

In the case of `Br.Br.Nc1cccc(-c2c(O)noc2C2CCNCC2)c1`, in experiment [1], the affinity corresponds to a Ki of 84 nM and the “Log Ki” value is listed as -7.07. The result in the experiment listed under Rattus norvegicus was inactive. In addition, the Ki in experiment [2] (read-out: Ki) stood at 59 nM.

As to `Br.Oc1noc(C2CCNCC2)c1-c1ccccc1Cl`, in experiment [1], the affinity corresponds to a Ki of 851 nM and the “Log Ki” value is listed as -6.07. The outcome in the experiment listed under Rattus norvegicus was inactive. Further, the Ki in experiment [2] (read-out: Ki) amounted to 129 nM.

In turn, `Oc1noc(C2CCNCC2)c1-c1cccc2ccccc12` registered a Ki in experiment [1] of 820 nM. Besides, in the experiment listed under Rattus norvegicus, the result was inactive.

Take `Br.Oc1noc(C2CCNCC2)c1-c1cc(Cl)cc(Cl)c1`: in experiment [1], the affinity, expressed as Ki, was 77 nM and the “Log Ki” value is listed as -7.11. Also, the outcome in the experiment filed under Rattus norvegicus was inactive. Besides, the Ki in experiment [2] (read-out: Ki) was found to be 68 nM.

`Br.Oc1noc(C2CCNCC2)c1-c1cccnc1`: the results for the Ki in experiment [1], in experiment [2] (read-out: Ki) and in experiment [2] (read-out: Log Ki (converted)) were 955 nM, 427 nM and 479 nM, respectively. For the same compound, in experiment [1], the “Log Ki” value is reported as -6.02. For the same compound, the result in the experiment filed under Rattus norvegicus was inactive.

Turning to `O=c1[nH]oc(C2CCNCC2)c1-c1cccc2ccccc12`, the inhibition constant Ki in experiment [2] (read-out: Ki) came out at 334 nM.

Consider `Br.O=[N+]([O-])c1cccc(-c2c(O)noc2C2CCNCC2)c1`, for which, in experiment [1], the Ki is 234 nM and the “Log Ki” value is recorded as -6.63. For the same compound, the result in the experiment filed under Rattus norvegicus was inactive. Also, in experiment [2] (read-out: Ki), the Ki is 138 nM.

As for `Oc1noc(C2CCNCC2)c1-c1ccc2ccccc2c1`, the Ki stood at 36 nM in experiment [1] and 141 nM in experiment [2] (read-out: Ki). Moreover, the result in the experiment listed under Rattus norvegicus was inactive.

On to `Oc1noc(C2CCNCC2)c1Cc1ccc2ccccc2c1-c1ccccc1`, for which the inhibition constant Ki in experiment [1] amounted to 21 nM; in experiment [2] (read-out: Ki) it was 198 nM. Moreover, the result in the experiment filed under Rattus norvegicus was inactive.

Turning to `Br.Oc1noc(C2CCNCC2)c1-c1ccsc1`, the inhibition constant Ki in experiment [1] was 317 nM; in experiment [2] (read-out: Ki), 76 nM. Also, in experiment [1], the “Log Ki” value is on record as -6.5. For the same compound, in the experiment filed under Rattus norvegicus, the outcome was inactive.

As usually defined, the Ki is the equilibrium dissociation constant of an inhibitor or competing ligand from its target.
